Results reported in ChEMBL document CHEMBL1145488, “Transient loss of high-level mupirocin resistance in Staphylococcus aureus due to MupA polymorphism” (2007).
In brackets after ≈: the same amount, converted by molar mass.

Key:
Format in all cases: functional
Staphylococcus aureus [1] = experiment: Antibacterial activity against Staphylococcus aureus with ileS gene mutation
Staphylococcus aureus [2] = experiment: Antibacterial activity against Staphylococcus aureus J2870 with mupA gene mutation
Staphylococcus aureus [3] = experiment: Antibacterial activity against Staphylococcus aureus MB1348 with mupA gene mutation by Etest
Staphylococcus aureus [4] = experiment: Antibacterial activity against Staphylococcus aureus MB1348 with mupA gene mutation by broth microdilution

## C/C(=C\C(=O)OCCCCCCCCC(=O)O)C[C@@H]1OC[C@H](C[C@@H]2O[C@H]2[C@@H](C)[C@H](C)O)[C@@H](O)[C@H]1O [MUPIROCIN]
Staphylococcus aureus [1]
  MIC: 8 µg/mL (≈ 16 µM)
Staphylococcus aureus [2]
  MIC: ≥ 512 µg/mL
Staphylococcus aureus [3]
  MIC: > 256 µg/mL
Staphylococcus aureus [4]
  MIC: 0.25 µg/mL (≈ 0.499 µM)
